Test results taken from ChEMBL document CHEMBL1201862, “PubChem BioAssay data set” (2004).
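48-hour exposure; five concentrations; linearly interpolated endpoints. GI50 = concentration required for 50% inhibition of growth.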 Active and inactive are the calls of the source. Cut-off read from the data, not from the text of the source: active = GI50 up to about 1.1 µM and inactive = higher.

Columns and labels:
Assay in all cases: DTP human tumour cell line panel, 48 h
786-0 = tested on: 786-0
HCT-116 = tested on: HCT-116
HCT-15 = tested on: HCT-15
HL-60 = tested on: HL-60
IGROV-1 = tested on: IGROV-1
K562 = tested on: K562
KM12 = tested on: KM12
LOX IMVI = tested on: LOX IMVI
NCI-H460 = tested on: NCI-H460
OVCAR-3 = tested on: OVCAR-3
SF-539 = tested on: SF-539
SNB-75 = tested on: SNB-75
SR = tested on: SR
UACC-257 = tested on: UACC-257

Compound | GI50 (786-0) | GI50 (HCT-116) | GI50 (HCT-15) [µM] | GI50 (HL-60) | GI50 (IGROV-1) | GI50 (K562) | GI50 (KM12) | GI50 (LOX IMVI) | GI50 (NCI-H460) | GI50 (OVCAR-3) | GI50 (SF-539) | GI50 (SNB-75) | GI50 (SR) | GI50 (UACC-257)
Nc1ccc(C(c2ccccc2)(c2ccccc2)c2ccccc2)cc1 | 48.2 µM (inactive) | 62.1 µM (inactive) | 78.7 | 26.8 µM (inactive) | 52.1 µM (inactive) | 70.6 µM (inactive) | 55.6 µM (inactive) | 47.6 µM (inactive) | 28.8 µM (inactive) | 64.6 µM (inactive) | 37 µM (inactive) | 13.5 µM (inactive) | 36.6 µM (inactive) | 34.3 µM (inactive)
C/C(O)=C1\CC2CN3CCc4c([nH]c5ccccc45)C3CC2CC1=O (stereo not drawn) | 38 µM (inactive) | 52.1 µM (inactive) | 45.4 | 32.7 µM (inactive) | > 100 µM (inactive) | 28.5 µM (inactive) | > 100 µM (inactive) | 26.1 µM (inactive) | > 100 µM (inactive) | 27.9 µM (inactive) | 75.2 µM (inactive) | 21.4 µM (inactive) | 23.4 µM (inactive) | > 100 µM (inactive)
COc1ccc(C2C(Cl)C(=O)N2NC(=O)c2ccc(NC(C)=O)cc2)cc1 (stereo not drawn) | > 100 µM (inactive) | > 100 µM (inactive) | > 100 | > 100 µM (inactive) | > 100 µM (inactive) | > 100 µM (inactive) | – | > 100 µM (inactive) | > 100 µM (inactive) | > 100 µM (inactive) | > 100 µM (inactive) | > 100 µM (inactive) | – | > 100 µM (inactive)
O=C(CC1Sc2ccccc2NC1=O)Nc1cc(Cl)ccc1Cl (stereo not drawn) | > 100 µM (inactive) | > 100 µM (inactive) | > 100 | > 100 µM (inactive) | > 100 µM (inactive) | > 100 µM (inactive) | – | > 100 µM (inactive) | > 100 µM (inactive) | > 100 µM (inactive) | 92.3 µM (inactive) | 33.4 µM (inactive) | 27.3 µM (inactive) | > 100 µM (inactive)
O=C(NC(=O)c1cc2cc(Br)cc(Br)c2oc1=O)Oc1ccccc1 | 45.3 µM (inactive) | > 100 µM (inactive) | > 100 | – | 50.7 µM (inactive) | > 100 µM (inactive) | 93.8 µM (inactive) | 63.2 µM (inactive) | > 100 µM (inactive) | > 100 µM (inactive) | 87.3 µM (inactive) | 13.7 µM (inactive) | – | 59.2 µM (inactive)
CCCCCCCCCCCCCCCC(=O)NCC(OCC)OCC | > 100 µM (inactive) | > 100 µM (inactive) | > 100 | > 100 µM (inactive) | > 100 µM (inactive) | – | > 100 µM (inactive) | > 100 µM (inactive) | > 100 µM (inactive) | > 100 µM (inactive) | > 100 µM (inactive) | > 100 µM (inactive) | – | > 100 µM (inactive)
N#C/N=C1\NC(Cc2ccccc2)C(=O)N1CCc1c[nH]c2ccccc12 (stereo not drawn) | 18.5 µM (inactive) | 20.6 µM (inactive) | 29.4 | 22.1 µM (inactive) | 31.8 µM (inactive) | 23.9 µM (inactive) | 29.4 µM (inactive) | 35.2 µM (inactive) | – | 33.6 µM (inactive) | 29.6 µM (inactive) | 8.87 µM (inactive) | 33.7 µM (inactive) | 43.6 µM (inactive)
CCOC(=O)c1nn2c(nc1=O)sc1ccc3ccccc3c12 | > 100 µM (inactive) | > 100 µM (inactive) | > 100 | > 100 µM (inactive) | > 100 µM (inactive) | > 100 µM (inactive) | > 100 µM (inactive) | > 100 µM (inactive) | > 100 µM (inactive) | > 100 µM (inactive) | > 100 µM (inactive) | > 100 µM (inactive) | > 100 µM (inactive) | > 100 µM (inactive)
COC(=O)[C@H]1COC(=S)N1C(=O)[C@@H](C)[C@H](O)C(C)C | > 100 µM (inactive) | > 100 µM (inactive) | > 100 | > 100 µM (inactive) | > 100 µM (inactive) | > 100 µM (inactive) | > 100 µM (inactive) | 57.4 µM (inactive) | > 100 µM (inactive) | > 100 µM (inactive) | > 100 µM (inactive) | 42 µM (inactive) | > 100 µM (inactive) | > 100 µM (inactive)
COC(=O)C(C(=O)C(=O)Nc1ccc(N)cc1[N+](=O)[O-])c1nc2ccc(Cl)cc2nc1O (stereo not drawn) | > 100 µM (inactive) | > 100 µM (inactive) | > 100 | > 100 µM (inactive) | > 100 µM (inactive) | > 100 µM (inactive) | > 100 µM (inactive) | > 100 µM (inactive) | > 100 µM (inactive) | 74.8 µM (inactive) | > 100 µM (inactive) | 32.4 µM (inactive) | – | > 100 µM (inactive)
Cc1c(C(=O)CC(=O)C(=O)Nc2ccc(Cl)cc2)[n+]([O-])c2ccccc2[n+]1[O-] | > 100 µM (inactive) | > 100 µM (inactive) | > 100 | > 100 µM (inactive) | > 100 µM (inactive) | > 100 µM (inactive) | > 100 µM (inactive) | – | > 100 µM (inactive) | > 100 µM (inactive) | > 100 µM (inactive) | 18.7 µM (inactive) | – | > 100 µM (inactive)
C[C@]12CCc3nonc3C1CC[C@@H]1C2CC[C@]2(C)NC(=O)CCC12 (stereo partly drawn) | > 100 µM (inactive) | > 100 µM (inactive) | > 100 | > 100 µM (inactive) | > 100 µM (inactive) | > 100 µM (inactive) | > 100 µM (inactive) | > 100 µM (inactive) | > 100 µM (inactive) | > 100 µM (inactive) | > 100 µM (inactive) | > 100 µM (inactive) | – | > 100 µM (inactive)
Cc1cccc(C(C)(C)C)c1NC(=O)CC1C(=O)Nc2ccccc2S1(=O)=O (stereo not drawn) | 10 µM (inactive) | 10.4 µM (inactive) | 4.76 | 3.25 µM (inactive) | 9.33 µM (inactive) | 2.84 µM (inactive) | – | 5.98 µM (inactive) | 11 µM (inactive) | 5.55 µM (inactive) | 3.14 µM (inactive) | 12.5 µM (inactive) | 3.21 µM (inactive) | 27.6 µM (inactive)
COc1ccc2c(c1)CN1CCc3c(cc(OC)c(OC)c3OC)C1C2 (stereo not drawn) | > 100 µM (inactive) | > 100 µM (inactive) | > 100 | 41.5 µM (inactive) | > 100 µM (inactive) | 57.5 µM (inactive) | – | – | – | > 100 µM (inactive) | > 100 µM (inactive) | > 100 µM (inactive) | > 100 µM (inactive) | > 100 µM (inactive)
COc1ccc(C2S/C(=C\c3ccccc3)C(=O)N2NC(=O)Cc2ccccc2)cc1 (stereo not drawn) | > 100 µM (inactive) | > 100 µM (inactive) | 40.7 | 55.8 µM (inactive) | > 100 µM (inactive) | > 100 µM (inactive) | > 100 µM (inactive) | > 100 µM (inactive) | > 100 µM (inactive) | – | > 100 µM (inactive) | > 100 µM (inactive) | 68.5 µM (inactive) | > 100 µM (inactive)
